According to patent US20230295260A1, “GLP RECEPTOR AGONISTS” (HEPTARES THERAPEUTICS LIMITED, priority 2020, published 2023):
Like-named read-outs stand apart in the source and are kept apart here. Non-standard residues stand in square brackets, D forms with d. Residues, ends and D or L forms follow the SMILES beside them. ξ: configuration not given here. *: point of attachment. Malonyl(2,2-Me2,histaminyl) = CC(C)(C(=O)NCCc1cnc[nH]1)C(=O)*; Ala(1H-tetrazol-5-yl) = N[C@@H](Cc1nnn[nH]1)C(=O)O; ξαMePhe(2-F) = CC(N)(Cc1ccccc1F)C(=O)O; αMeF = C[C@](N)(Cc1ccccc1)C(=O)O; Nle = CCCC[C@H](N)C(=O)O; Aib = CC(C)(N)C(=O)O; Alloc = C=CCOC(=O)*

What was measured:
[1] = molecular target: T1, human GLP1 receptor (Homo sapiens, UniProt P43220); assay: cAMP accumulation assay (HTRF), functional agonism of human GLP1 receptor in HEK cells; assay type: cell-based; conditions: for EC50: read-out: Human GLP-1R agonist cAMP pEC50 (converted)
T1 construct: expressed in transfected cells; host or cells: HEK cells, BacMam virus transduction
T1 sequence (P43220 24-463): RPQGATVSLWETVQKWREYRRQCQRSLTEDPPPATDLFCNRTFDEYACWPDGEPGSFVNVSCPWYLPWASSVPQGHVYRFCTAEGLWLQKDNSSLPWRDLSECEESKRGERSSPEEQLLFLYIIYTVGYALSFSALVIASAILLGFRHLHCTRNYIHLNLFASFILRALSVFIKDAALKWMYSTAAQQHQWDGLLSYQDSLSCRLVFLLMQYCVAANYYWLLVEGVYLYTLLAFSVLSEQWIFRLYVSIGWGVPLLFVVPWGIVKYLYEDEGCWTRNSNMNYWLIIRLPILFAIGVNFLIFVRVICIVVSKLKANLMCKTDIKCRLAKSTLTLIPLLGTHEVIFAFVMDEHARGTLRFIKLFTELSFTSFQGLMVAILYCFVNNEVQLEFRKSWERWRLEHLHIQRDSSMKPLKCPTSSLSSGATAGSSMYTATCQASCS
Description: The functional activity of the peptides were assessed using a HTRF cAMP assay. pEC50 values are quoted.
cAMP production upon agonist stimulation of human GLP2 or GLP1 receptor was assessed utilizing HiRange cAMP kit (Cisbio). In brief, HEK cells were infected with either human GLP2 or GLP1 receptor BacMam virus for 24 hours and frozen for later use in the assay. […] Cells were prepared in the assay buffer (HBSS (Lonza) supplemented with 0.5 mM IBMX (Tocris)). After 45 min incubation at 37° C., the reaction was stopped by addition of the HTRF detection reagents in the lysis buffer provided in the kit.

[2] = molecular target: T2, human GLP2 receptor (Homo sapiens, UniProt O95838); assay: cAMP accumulation assay (HTRF), functional agonism of human GLP2 receptor in HEK cells; conditions: for Emax: HEK293, read-out: Human GLP-2R agonist cAMP Emax;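 on all read-outs here: HEK cells transduced via BacMam to express human GLP2 receptor, agonist-stimulated cAMP measured by HTRF after 45 min at 37 °C in HBSS with 0.5 mM IBMX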
T2 sequence (O95838 1-553): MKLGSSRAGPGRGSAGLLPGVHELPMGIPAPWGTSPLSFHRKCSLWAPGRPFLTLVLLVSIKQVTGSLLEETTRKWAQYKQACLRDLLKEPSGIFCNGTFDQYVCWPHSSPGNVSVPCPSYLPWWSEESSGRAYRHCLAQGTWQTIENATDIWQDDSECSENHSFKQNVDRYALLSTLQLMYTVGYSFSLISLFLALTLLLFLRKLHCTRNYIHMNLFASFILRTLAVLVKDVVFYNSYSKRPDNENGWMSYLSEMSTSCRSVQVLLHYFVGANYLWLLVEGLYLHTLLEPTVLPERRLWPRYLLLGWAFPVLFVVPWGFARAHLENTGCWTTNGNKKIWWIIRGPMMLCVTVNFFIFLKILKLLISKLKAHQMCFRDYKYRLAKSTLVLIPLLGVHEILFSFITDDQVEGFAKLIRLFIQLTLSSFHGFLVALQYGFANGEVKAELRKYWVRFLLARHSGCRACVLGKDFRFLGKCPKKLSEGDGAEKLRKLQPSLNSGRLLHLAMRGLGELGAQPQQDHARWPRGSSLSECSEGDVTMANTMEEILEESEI

[3] = HEK293, HEK cells, human GLP1 receptor BacMam, 45 min 37° C., read-out: Human GLP-1R agonist cAMP Emax
[4] = HEK293, read-out: Human GLP-1R agonist cAMP Emax
[5] = HEK cells, human GLP1 receptor BacMam, 45 min 37° C.

Emax [1, 3] | Emax [2] | EC50 [1, 5] | EC50 [2] | SMILES | Emax [1, 4]
96.4% | 103% | 10000 pM | 31.6 pM | C=CCOC(=O)NCCCC[C@H](NC(=O)[C@H](C)NC(=O)[C@H](C)NC(=O)[C@H](CCCCNC(=O)OCC=C)NC(=O)[C@H](CC(C)C)NC(=O)[C@H](CC(=O)O)NC(=O)[C@H](CC(C)C)NC(=O)C(C)(C)NC(=O)[C@@H](NC(=O)[C@@H](Cc1ccccc1)NC(=O)[C@H](CCCC)NC(=O)[C@H](CCC(=O)O)NC(=O)[C@H](CC(=O)O)NC(=O)[C@H](CO)NC(=O)[C@H](Cc1ccccc1)NC(=O)[C@H](CO)NC(=O)CNC(=O)[C@H](Cc1nn[nH]n1)NC(=O)C(C)(C)C(=O)NCCc1c[nH]cn1)[C@@H](C)O)C(=O)N[C@@H](CC(=O)O)C(=O)N[C@@H](Cc1ccccc1)C(=O)N[C@H](C(=O)N[C@@H](CC(N)=O)C(=O)N[C@@H](Cc1c[nH]c2ccccc12)C(=O)N[C@@H](CC(C)C)C(=O)N[C@H](C(=O)N[C@@H](CCC(N)=O)C(=O)N[C@H](C(=O)N[C@@H](CCCCN)C(=O)N[C@H](C(=O)N[C@H](C(=O)N[C@@H](Cc1ccccc1)C(N)=O)[C@@H](C)O)[C@@H](C)CC)[C@@H](C)O)[C@@H](C)CC)[C@@H](C)CC [Example 6] ({Malonyl(2,2-Me2,histaminyl)}-[Ala(1H-tetrazol-5-yl)]GSFSDE[Nle][dF]T[Aib]LDLK(Alloc)AAK(Alloc)DFINWLIQTKITF-NH2) | –
62.2% | 102% | 39800 pM | 10 pM | C=CCOC(=O)NCCCC[C@H](NC(=O)[C@H](CC(C)C)NC(=O)[C@H](CC(=O)O)NC(=O)[C@H](CC(C)C)NC(=O)C(C)(C)NC(=O)[C@@H](NC(=O)[C@@H](Cc1ccccc1)NC(=O)[C@H](CCCC)NC(=O)[C@H](CCC(=O)O)NC(=O)[C@H](CC(=O)O)NC(=O)[C@H](CO)NC(=O)[C@H](Cc1ccccc1)NC(=O)[C@H](CO)NC(=O)[C@@H](C)NC(=O)[C@H](Cc1nn[nH]n1)NC(=O)C(C)(C)C(=O)NCCc1c[nH]cn1)[C@@H](C)O)C(=O)N[C@@H](C)C(=O)N[C@@H](C)C(=O)NC(C)(C)C(=O)N[C@@H](CC(=O)O)C(=O)N[C@@H](Cc1ccccc1)C(=O)N[C@H](C(=O)N[C@@H](CC(N)=O)C(=O)N[C@@H](Cc1c[nH]c2ccccc12)C(=O)N[C@@H](CC(C)C)C(=O)N[C@H](C(=O)N[C@@H](CCC(N)=O)C(=O)N[C@H](C(=O)N[C@@H](CCCCN)C(=O)N[C@H](C(=O)N[C@H](C(=O)N[C@@H](Cc1ccccc1)C(N)=O)[C@@H](C)O)[C@@H](C)CC)[C@@H](C)O)[C@@H](C)CC)[C@@H](C)CC [Example 7] ({Malonyl(2,2-Me2,histaminyl)}-[Ala(1H-tetrazol-5-yl)][dA]SFSDE[Nle][dF]T[Aib]LDLK(Alloc)AA[Aib]DFINWLIQTKITF-NH2) | –
94.1% | 102% | 20000 pM | 12.6 pM | C=CCOC(=O)NCCCC[C@H](NC(=O)[C@H](CC(C)C)NC(=O)[C@H](CC(=O)O)NC(=O)[C@H](CC(C)C)NC(=O)[C@@H](NC(=O)[C@@H](NC(=O)[C@@H](Cc1ccccc1)NC(=O)[C@H](CCCC)NC(=O)[C@H](CCC(=O)O)NC(=O)[C@H](CC(=O)O)NC(=O)[C@H](CO)NC(=O)[C@H](Cc1ccccc1)NC(=O)[C@H](CO)NC(=O)CNC(=O)[C@H](Cc1nn[nH]n1)NC(=O)C(C)(C)C(=O)NCCc1c[nH]cn1)[C@@H](C)O)[C@@H](C)CC)C(=O)N[C@@H](C)C(=O)N[C@@H](C)C(=O)NC(C)(C)C(=O)N[C@@H](CC(=O)O)C(=O)N[C@@H](Cc1ccccc1)C(=O)N[C@H](C(=O)N[C@@H](CC(N)=O)C(=O)N[C@@H](Cc1c[nH]c2ccccc12)C(=O)N[C@@H](CC(C)C)C(=O)N[C@H](C(=O)N[C@@H](CCC(N)=O)C(=O)N[C@H](C(=O)N[C@@H](CCCCN)C(=O)N[C@H](C(=O)N[C@H](C(=O)N[C@@H](Cc1ccccc1)C(N)=O)[C@@H](C)O)[C@@H](C)CC)[C@@H](C)O)[C@@H](C)CC)[C@@H](C)CC [Example 9] ({Malonyl(2,2-Me2,histaminyl)}-[Ala(1H-tetrazol-5-yl)]GSFSDE[Nle][dF]TILDLK(Alloc)AA[Aib]DFINWLIQTKITF-NH2) | –

Further lines, the compound ahead of its results:

SMILES | Emax [1, 3] | Emax [2] | EC50 [1, 5] | EC50 [2] | Emax [1, 4]
C=CCOC(=O)NCCCC[C@H](NC(=O)[C@H](CC(C)C)NC(=O)[C@H](CC(=O)O)NC(=O)[C@H](CC(C)C)NC(=O)[C@@H](NC(=O)[C@@H](NC(=O)[C@@H](Cc1ccccc1)NC(=O)[C@H](CCCC)NC(=O)[C@H](CCC(=O)O)NC(=O)[C@H](CC(=O)O)NC(=O)[C@H](CO)NC(=O)C(C)(Cc1ccccc1F)NC(=O)[C@H](CO)NC(=O)CNC(=O)[C@H](CC(=O)O)NC(=O)C(C)(C)C(=O)NCCc1c[nH]cn1)[C@@H](C)O)[C@@H](C)CC)C(=O)N[C@@H](C)C(=O)N[C@@H](C)C(=O)N[C@@H](CCCCN)C(=O)N[C@@H](CC(=O)O)C(=O)N[C@@H](Cc1ccccc1)C(=O)N[C@H](C(=O)N[C@@H](CC(N)=O)C(=O)N[C@@H](Cc1c[nH]c2ccccc12)C(=O)N[C@@H](CC(C)C)C(=O)N[C@H](C(=O)N[C@@H](CCC(N)=O)C(=O)N[C@H](C(=O)N[C@@H](CCCCN)C(=O)N[C@H](C(=O)N[C@H](C(=O)N[C@@H](CC(=O)O)C(N)=O)[C@@H](C)O)[C@@H](C)CC)[C@@H](C)O)[C@@H](C)CC)[C@@H](C)CC (stereo partly shown) [Example 4] ({Malonyl(2,2-Me2,histaminyl)}-DGS[ξαMePhe(2-F)]SDE[Nle][dF]TILDLK(Alloc)AAKDFINWLIQTKITD-NH2; C-terminus assumed) | 98.1% | 99.3% | – | – | –
C=CCOC(=O)NCCCC[C@H](NC(=O)[C@H](CC(C)C)NC(=O)[C@H](CC(=O)O)NC(=O)[C@H](CC(C)C)NC(=O)C(C)(C)NC(=O)[C@@H](NC(=O)[C@@H](Cc1ccccc1)NC(=O)[C@H](CCCC)NC(=O)[C@H](CCC(=O)O)NC(=O)[C@H](CC(=O)O)NC(=O)[C@H](CO)NC(=O)[C@H](Cc1ccccc1)NC(=O)[C@H](CO)NC(=O)CNC(=O)[C@H](Cc1nn[nH]n1)NC(=O)C(C)(C)C(=O)NCCc1c[nH]cn1)[C@@H](C)O)C(=O)N[C@@H](C)C(=O)N[C@@H](C)C(=O)NC(C)(C)C(=O)N[C@@H](CC(=O)O)C(=O)N[C@@H](Cc1ccccc1)C(=O)N[C@H](C(=O)N[C@@H](CC(N)=O)C(=O)N[C@@H](Cc1c[nH]c2ccccc12)C(=O)N[C@@H](CC(C)C)C(=O)N[C@H](C(=O)N[C@@H](CCC(N)=O)C(=O)N[C@H](C(=O)N[C@@H](CCCCN)C(=O)N[C@H](C(=O)N[C@H](C(=O)N[C@@H](Cc1ccccc1)C(N)=O)[C@@H](C)O)[C@@H](C)CC)[C@@H](C)O)[C@@H](C)CC)[C@@H](C)CC [Example 5] ({Malonyl(2,2-Me2,histaminyl)}-[Ala(1H-tetrazol-5-yl)]GSFSDE[Nle][dF]T[Aib]LDLK(Alloc)AA[Aib]DFINWLIQTKITF-NH2) | – | 103% | – | – | 93.6%
C=CCOC(=O)NCCCC[C@H](NC(=O)[C@H](C)NC(=O)C(C)(C)NC(=O)[C@H](CCCCNC(=O)OCC=C)NC(=O)[C@H](CC(N)=O)NC(=O)[C@H](CC(=O)O)NC(=O)[C@H](CC(C)C)NC(=O)C(C)(C)NC(=O)[C@@H](NC(=O)[C@H](CC(N)=O)NC(=O)[C@H](CCCC)NC(=O)[C@H](CCC(=O)O)NC(=O)[C@H](CC(=O)O)NC(=O)[C@H](CO)NC(=O)[C@H](Cc1ccccc1)NC(=O)[C@H](CO)NC(=O)[C@@H](C)NC(=O)[C@H](Cc1nn[nH]n1)NC(=O)C(C)(C)C(=O)NCCc1c[nH]cn1)[C@@H](C)O)C(=O)N[C@@H](CC(=O)O)C(=O)N[C@@H](Cc1ccccc1)C(=O)N[C@H](C(=O)N[C@@H](CC(N)=O)C(=O)N[C@@H](Cc1c[nH]c2ccccc12)C(=O)N[C@@H](CC(C)C)C(=O)N[C@H](C(=O)N[C@@H](CCC(N)=O)C(=O)N[C@H](C(=O)N[C@@H](CCCNC(=N)N)C(=O)N[C@H](C(=O)N[C@H](C(=O)N[C@@H](Cc1ccccc1)C(N)=O)[C@@H](C)O)[C@@H](C)CC)[C@@H](C)O)[C@@H](C)CC)[C@@H](C)CC [Example 8] ({Malonyl(2,2-Me2,histaminyl)}-[Ala(1H-tetrazol-5-yl)][dA]SFSDE[Nle]NT[Aib]LDNK(Alloc)[Aib]AK(Alloc)DFINWLIQTRITF-NH2) | – | 104% | – | – | 93.3%
C=CCOC(=O)NCCCC[C@H](NC(=O)[C@H](CC(C)C)NC(=O)[C@H](CC(=O)O)NC(=O)[C@H](CC(C)C)NC(=O)[C@@H](NC(=O)[C@@H](NC(=O)[C@@H](Cc1ccccc1)NC(=O)[C@H](CCCC)NC(=O)[C@H](CCC(=O)O)NC(=O)[C@H](CC(=O)O)NC(=O)[C@H](CO)NC(=O)[C@](C)(Cc1ccccc1)NC(=O)[C@H](CO)NC(=O)CNC(=O)[C@H](Cc1nn[nH]n1)NC(=O)C(C)(C)C(=O)NCCc1c[nH]cn1)[C@@H](C)O)[C@@H](C)CC)C(=O)N[C@@H](C)C(=O)N[C@@H](C)C(=O)N[C@@H](CCCCN)C(=O)N[C@@H](CC(=O)O)C(=O)N[C@@H](Cc1ccccc1)C(=O)N[C@H](C(=O)N[C@@H](CC(N)=O)C(=O)N[C@@H](Cc1c[nH]c2ccccc12)C(=O)N[C@@H](CC(C)C)C(=O)N[C@H](C(=O)N[C@@H](CCC(N)=O)C(=O)N[C@H](C(=O)N[C@@H](CCCCN)C(=O)N[C@H](C(=O)N[C@H](C(=O)N[C@@H](CC(=O)O)C(N)=O)[C@@H](C)O)[C@@H](C)CC)[C@@H](C)O)[C@@H](C)CC)[C@@H](C)CC [Example 10] ({Malonyl(2,2-Me2,histaminyl)}-[Ala(1H-tetrazol-5-yl)]GS[αMeF]SDE[Nle][dF]TILDLK(Alloc)AAKDFINWLIQTKITD-NH2) | 96.4% | 101% | 100 pM | 10 pM | –
